For the assay, the system named is emerged weeds. Briefly: Post-emergence application in greenhouse trials (scale 0 to 100; expected value by Colby). It counts as in vivo. Here is the method: In the examples below, using the method of S. R. Colby (1967) “Calculating synergistic and antagonistic responses of herbicide combinations”, Weeds 15, p. 22ff., the value E, which is expected if the activity of the individual active compounds is only additive, was calculated:
[formula] • where • X=percent activity using active herbicide A at an application rate a; • Y=percent activity using active herbicide B (e.g. acetochlor) at an application rate b; • E=expected activity (in %) by A+B at application rates a+b.
If the value found experimentally is higher than the value E calculated according to Colby, a synergistic effect is present.
The culture containers used were plastic pots containing loamy sand with approximately 3.0% of humus as substrate. The seeds of the test plants were sown separately for each species.
[…] To this end, the test plants were either sown directly, and grown in the same containers, or they were first grown separately as seedlings and transplanted into the test containers a few days prior to treatment.
Depending on the species, the plants were kept at 10-25° C. and 20-35° C., respectively. The test period extended over 2 to 4 weeks. During this time, the plants were tended and their response to the individual treatments was evaluated.
Evaluation was carried out using a scale from 0 to 100. 100 means no emergence of the plants, or complete destruction of at least the above-ground parts, and 0 means no damage or normal course of growth. A good herbicidal activity is given at values of at least 70, and very good herbicidal activity is given at values of at least 85.
Herbicide A-1 and acetochlor were, together with addition of 0.5% MSO (methylated sed oil) as adjuvant, formulated in water as distribution medium (water volume 200 l/ha) and sprayed with commercial flat fan nozzles.
Herbicide A-1, acetochlor and mesotrione were, together with addition of 0.5 v/v % MSO (methylated sed oil) as adjuvant, formulated in water as distribution medium (water volume 200 l/ha) and sprayed with commercial flat fan nozzles.
Herbicide A-1, acetochlor and topramezone were, together with addition of 0.5 v/v % MSO (methylated sed oil) as adjuvant, formulated in water as distribution medium (water volume 200 l/ha) and sprayed with commercial flat fan nozzles.

SMILES strings stand for the structures.

Take `CS(=O)(=O)c1ccc(C(=O)C2C(=O)CCCC2=O)c([N+](=O)[O-])c1` [C-24, mesotrione]: the “% Herbicidal activity” value runs as follows: (ABUTH, growth stage 15, 7 DAT, g ai/ha: A-1 0.5, B 200, C-24 50) 60%; (ABUTH, growth stage 15, 21 DAT, g ai/ha: A-1 0.25, B 200, C-24 50) 90%; (AVEFA, growth stage 11, 21 DAT, g ai/ha: A-1 2, B 200, C-24 50) 10%; (COMBE, growth stage 13, 21 DAT, g ai/ha: A-1 1, B 200, C-24 50) 90%; (ECHCG, growth stage 12, 21 DAT, g ai/ha: A-1 2, B 200, C-24 50) 95%; (ZEAMX, growth stage 12, 21 DAT, g ai/ha: A-1 2, B 200, C-24 50) 0%.
Regarding `Cc1c(C(=O)c2cnn(C)c2O)ccc(S(C)(=O)=O)c1C1=NOCC1` [C-25, topramezone], the “% Herbicidal activity” value is, setting by setting: (ABUTH, growth stage 15, 7 DAT, g ai/ha: A-1 0.5, B 200, C-25 3.125) 50%; (AVEFA, growth stage 11, 7 DAT, g ai/ha: A-1 2, B 200, C-25 3.125) 10%; (AVEFA, growth stage 11, 21 DAT, g ai/ha: A-1 2, B 200, C-25 3.125) 10%; (BRADC, growth stage 11, 21 DAT, g ai/ha: A-1 2, B 200, C-25 3.125) 55%; (COMBE, growth stage 13, 21 DAT, g ai/ha: A-1 1, B 200, C-25 3.125) 35%; (ECHCG, growth stage 12, 21 DAT, g ai/ha: A-1 2, B 200, C-25 3.125) 80%. Also, the “% Herbicidal activity” value is, setting by setting: (ERICA, growth stage 19, 7 DAT, g ai/ha: A-1 2, B 200, C-25 3.125) 35%; (GLXMA, growth stage 18, 7 DAT, g ai/ha: A-1 1, B 200, C-25 3.125) 20%; (KCHSC, growth stage 29, 21 DAT, g ai/ha: A-1 1, B 200, C-25 3.125) 10%; (KCHSC, growth stage 29, 21 DAT, g ai/ha: A-1 2, B 200, C-25 3.125) 10%; (LOLMU, growth stage 11, 7 DAT, g ai/ha: A-1 2, B 200, C-25 3.125) 0%; (LOLMU, growth stage 11, 21 DAT, g ai/ha: A-1 2, B 200, C-25 3.125) 0%. For the same compound, the “% Herbicidal activity” value (ZEAMX, growth stage 12, 21 DAT, g ai/ha: A-1 2, B 200, C-25 3.125) is given as 0%.

The record behind these values is patent US12599134B2, “Herbicidal compositions comprising acetochlor” (BASF SE, priority 2024, dated 2026).
